Read-outs that look alike come from different tables or passages of the source.
Columns and labels:
[1] = system: HCV replicon in HUH-7 cells; assay: HCV replicon FRET assay; type: cell-based, Hepatitis C virus (strain 1b); details: Hepatitis C virus
Summary of the method: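 HUH-7 cells carrying a genotype 1b subgenomic neo replicon (NS3–NS5B) treated 4 days at 37 °C with compound in 0.5% DMSO final. CC50 from alamarBlue fluorescence after 4 h; cells then lysed with FRET protease substrate at 10 μM final and read kinetically at 340/490 nm to give EC50.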

[2] = target: T1, porcine pancreatic elastase (PPE) (Sus scrofa, UniProt P00772); assay: Specificity assay, porcine pancreatic elastase; type: biochemical; details: read-out: PPE activity in the specificity assays (IC50)
T1 construct: purchased Sigma or EMDbiosciences
T1 sequence (P00772 27-266): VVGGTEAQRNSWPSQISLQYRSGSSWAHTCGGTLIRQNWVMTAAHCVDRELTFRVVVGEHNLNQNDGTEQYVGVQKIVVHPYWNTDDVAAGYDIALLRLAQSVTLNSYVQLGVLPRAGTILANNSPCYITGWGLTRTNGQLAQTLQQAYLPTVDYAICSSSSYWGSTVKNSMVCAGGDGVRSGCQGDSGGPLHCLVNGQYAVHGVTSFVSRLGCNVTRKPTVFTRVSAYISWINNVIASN
Experimental: The specificities of compounds of the present disclosure were determined against a variety of serine proteases: human neutrophil elastase (HNE), porcine pancreatic elastase (PPE) and human pancreatic chymotrypsin and one cysteine protease: human liver cathepsin B. In all cases, a 96-well plate format protocol using colorimetric p-nitroaniline (pNA) substrate or fluorometric Amino-Methyl-Coumarin (AMC) substrate, specific for each enzyme was used as described previously (PCT Patent Application No. WO 00/09543) with some modifications. All enzymes were purchased from Sigma or EMDbiosciences while the substrates were from Bachem.
Each pNA assay included a 2 hours enzyme-inhibitor pre-incubation at room temperature followed by addition of substrate and hydrolysis to ˜15% conversion as measured on a Spectramax Pro microplate reader. The cathepsin B assay was initiated by adding substrate to a 10 min enzyme-inhibitor pre-incubation at room temperature, and the assay plate measured immediately using the Cytofluor Series 4000. Compound concentrations varied from 100 to 0.4 μM depending on their potency. […]
The percentage of inhibition was calculated using the formula: [1−((UVinh−UVblank)/(UVctl−UVblank))]×100 […]

`C=C[C@@H]1C[C@]1(NC(=O)[C@@H]1C[C@@H](OC(=O)N2Cc3cccc(F)c3C2)CN1C(=O)[C@@H](OC(=O)NC(C)(C)C)C(C)(C)C)C(=O)NS(=O)(=O)C1CC1` [Example 56Compound 56] showed an EC50 ([1]; Huh-7, 96 h, replicon FRET assay, HUH-7, 4 days, read-out: EC50 value in the replicon FRET assay) of 742 nM, an EC50 ([1]; Huh-7, read-out: EC50 Range, HCV replicon cell assay, Table 1) of 500 to 5000 nM and an IC50 [2] of over 100000 nM.

Reference: patent publication US7323447B2, “Hepatitis C virus inhibitors” (Bristol-Myers Squibb Company, priority 2005, dated 2008)
